Here are results for twelve molecules from patent US20210122757A1, “SPIROCYCLIC COMPOUNDS AS MODULATORS OF INDOLEAMINE 2,3-DIOXYGENASE” (PHENEX DISCOVERY VERWALTUNGS-GMBH, priority 2018, published 2021).

This test has as its target T1, Indoleamine 2,3-dioxygenase (Homo sapiens, UniProt P14902).
T1 construct: endogenous in cells; host or cells: SKOV-3 (ATCC HTB-77), stimulated with 50 ng/ml interferon gamma
The test can be described thus: SKOV-3 Cellular Indoleamine 2,3-dioxygenase Assay. Conditions: SKOV-3 cells, 50 ng/ml Interferon gamma, 100 μM L-Tryptophan, 24 hours, N-Formylkynurenin fluorescence detection; read-out: cell based activity (IC50). As for the experimental part:
SKOV-3 Cellular Indoleamine 2,3-dioxygenase Assay
SKOV-3 cells were obtained from the American Type Culture Collection (ATCC® HTB-77™) and maintained in McCoy's medium (Pan Biotech) supplemented with 10% fetal bovine serum and 1% Penicillin/Streptomycin. Cells were kept at 37° C. in a humidified incubator with 5% CO2. For assay preparation, cells were seeded at a density of 2*10^5/ml into black clear bottom 96 well plates in 100 μl medium/well supplemented with 50 ng/ml Interferon gamma (eBioscience, Thermo Fisher Scientific). After cells fully adhered to the plate, dilution series of compounds were added in medium containing additional L-Tryptophan to a final L-Tryptophan concentration of 100 μM. The cells were incubated for 24 hours. Detection of produced N-Formylkynurenin was performed by addition of 3-Methylpiperidine to a final concentration of 200 mM. The plates were sealed and heated to 65° C. for 20 minutes in a water bath. After cooling the fluorescence of each well was recorded with a Victor™X4 (PerkinElmer) plate reader at an emission wavelength of 535 nm and excitation at 405 nm (Tomek et al.; Anal Bioanal Chem (2013) 405:2515-2524, Tomek et al.; Biochim Biophys Acta. 2015 September; 1850(9):1772-80).

Molecules are shown by their SMILES. A value given as a limit tells only on which side of the number the result lay.

T1 sequence (P14902 whole entry): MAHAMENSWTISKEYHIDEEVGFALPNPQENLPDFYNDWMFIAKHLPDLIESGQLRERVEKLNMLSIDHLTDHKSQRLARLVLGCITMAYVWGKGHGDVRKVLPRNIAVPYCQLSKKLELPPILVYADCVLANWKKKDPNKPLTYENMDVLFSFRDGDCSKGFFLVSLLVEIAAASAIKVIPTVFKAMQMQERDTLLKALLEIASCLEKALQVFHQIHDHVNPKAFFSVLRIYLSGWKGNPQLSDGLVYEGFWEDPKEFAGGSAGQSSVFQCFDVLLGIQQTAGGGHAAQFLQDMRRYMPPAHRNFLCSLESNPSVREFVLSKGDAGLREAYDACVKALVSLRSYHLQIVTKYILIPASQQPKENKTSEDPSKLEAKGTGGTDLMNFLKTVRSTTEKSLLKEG

As a reminder, the IC50 is the point on the concentration scale where inhibition reaches its midpoint. In the case of `CC(C(=O)Nc1ccc(Cl)cc1)C1CCC2(CC1)COc1nc(C(F)(F)F)ccc12` (single isomer, unassigned) [Example 5b, N-(4-chlorophenyl)-2-(6′-(trifluoromethyl)-2′H-spiro[cyclohexane-1,3′-furo[2,3-b]pyridin]-4-yl)propanamide], the IC50 was below 50 nM.
Take `CC(C(=O)Nc1ccc(Cl)cc1)C1CCC2(CC1)COc1ncc(C(F)(F)F)cc12` (single isomer, unassigned) [Example 4d, N-(4-chlorophenyl)-2-(5′-(trifluoromethyl)-2′H-spiro[cyclohexane-1,3′-furo[2,3-b]pyridin]-4-yl)propanamide]: the IC50 is at least 50 nM.
In the case of `CC1CCC(NC(=O)C(C)C2CCC3(CC2)COc2cc(C(F)(F)F)ccc23)CC1` (single isomer, unassigned) [Example 9b, N-((1r,4r)-4-Methylcyclohexyl)-2-(6-(trifluoromethyl)-2H-spiro[benzofuran-3,1′-cyclohexan]-4′-yl)propanamide] it was at least 50 nM; in that of `Cc1ccc(NC(=O)C(C)C2CCC3(CC2)COc2cc(C(F)(F)F)ccc23)cc1` (single isomer, unassigned) [Example 8d, N-(p-Tolyl)-2-(6-(trifluoromethyl)-2H-spiro[benzofuran-3,1′-cyclohexan]-4′-yl)propanamide], below 50 nM.
The same measure for `CC1CCC(NC(=O)C(C)C2CCC3(CC2)COc2cc(C(F)(F)F)ccc23)CC1` (single isomer, unassigned) [Example 9d, N-((1r,4r)-4-Methylcyclohexyl)-2-(6-(trifluoromethyl)-2H-spiro[benzofuran-3,1′-cyclohexan]-4′-yl)propanamide]: at least 50 nM.
In the case of `CC(C(=O)Nc1ccc(Cl)cc1)C1CCC2(CC1)COc1ncc(C(F)(F)F)cc12` (single isomer, unassigned) [Example 4e, N-(4-chlorophenyl)-2-(5′-(trifluoromethyl)-2′H-spiro[cyclohexane-1,3′-furo[2,3-b]pyridin]-4-yl)propanamide] it was below 50 nM.
Take `CC(c1nc2cc(Cl)ccc2[nH]1)C1CCC2(CC1)COc1cc(C(F)(F)F)ccc12` (single isomer, unassigned) [Example 11d, 5-Chloro-2-(1-(6-(trifluoromethyl)-2H-spiro[benzofuran-3,1′-cyclohexan]-4′-yl)ethyl)-1H-benzo[d]imidazole]: the IC50 was below 50 nM.
The same measure for `C[C@H](C(=O)Nc1ccc(Cl)cc1)[C@H]1CC[C@]2(CC1)COc1cc(C(F)(F)F)ccc12` [Example 3d, (S)—N-(4-Chlorophenyl)-2-((3R,4′s)-6-(trifluoromethyl)-2H-spiro[benzofuran-3,1′-cyclohexan]-4′-yl)propanamide]: below 50 nM; for `CC(C(=O)Nc1ccc(Cl)cc1F)C1CCC2(CC1)COc1cc(C(F)(F)F)ccc12` (single isomer, unassigned) [Example 7e, N-(4-Chloro-2-fluorophenyl)-2-(6-(trifluoromethyl)-2H-spiro[benzofuran-3,1′-cyclohexan]-4′-yl)propanamide]: at least 50 nM; for `CC(C(=O)Nc1ccc(Cl)cc1)C1CCC2(CC1)COc1nc(C(F)(F)F)ccc12` (single isomer, unassigned) [Example 5d, N-(4-chlorophenyl)-2-(6′-(trifluoromethyl)-2′H-spiro[cyclohexane-1,3′-furo[2,3-b]pyridin]-4-yl)propanamide]: at least 50 nM.
Consider `CCC(C(=O)Nc1ccc(Cl)cn1)C1CCC2(CC1)COc1cc(C(F)(F)F)ccc12` (single isomer, unassigned) [Example 10d, N-(5-chloropyridin-2-yl)-2-(6-(trifluoromethyl)-2H-spiro[benzofuran-3,1′-cyclohexan]-4′-yl)butanamide], for which the 50% inhibitory concentration (IC50) was below 50 nM.
Take `CCC(C(=O)Nc1ccc(Cl)cn1)C1CCC2(CC1)COc1cc(C(F)(F)F)ccc12` (single isomer, unassigned) [Example 10b, N-(5-chloropyridin-2-yl)-2-(6-(trifluoromethyl)-2H-spiro[benzofuran-3,1′-cyclohexan]-4′-yl)butanamide]: the IC50 was below 50 nM.
